Experimental data: PubChem BioAssay (NCI)
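Following 48 hours of exposure in 96-well plates, responses at five concentrations were used to interpolate endpoints linearly. Here, GI50 denotes the concentration required for 50% inhibition of growth. TGI marks complete inhibition of growth.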

What was measured:
Assay in all cases: inhibition of tumour cell growth, NCI panel, 48 h
OVCAR-8 ovarian = test system: OVCAR-8 ovarian
LOX IMVI melanoma = test system: LOX IMVI melanoma
NCI-H226 lung = test system: NCI-H226 lung
CCRF-CEM leukemia = test system: CCRF-CEM leukemia
SNB-75 CNS = test system: SNB-75 CNS
UACC-257 melanoma = test system: UACC-257 melanoma
CAKI-1 renal = test system: CAKI-1 renal
IGROV1 ovarian = test system: IGROV1 ovarian
M14 melanoma = test system: M14 melanoma
ACHN renal = test system: ACHN renal

## Cn1c(I)c(C#CCO[Si](C)(C)C(C)(C)C)c(=O)[nH]c1=O
OVCAR-8 ovarian
  GI50: 22.4 µM
  TGI: 51.7 µM
LOX IMVI melanoma
  GI50: 1.83 µM
  TGI: 4.42 µM
NCI-H226 lung
  GI50: 17.1 µM
  TGI: 32.7 µM
CCRF-CEM leukemia
  GI50: 1.92 µM
  TGI: 4.17 µM
SNB-75 CNS
  GI50: 16.2 µM
  TGI: 37.7 µM
UACC-257 melanoma
  GI50: 12.9 µM
  TGI: 27.3 µM
CAKI-1 renal
  GI50: 3.29 µM
  TGI: 12.6 µM
IGROV1 ovarian
  GI50: 17.2 µM
  TGI: 32.7 µM
M14 melanoma
  GI50: 14 µM
  TGI: 28.7 µM
ACHN renal
  GI50: 15.9 µM
  TGI: 29.5 µM

## COc1cc(Nc2ncccc2C(=O)NCc2cn(Cc3cccc(Oc4ccccc4)c3)nn2)cc(OC)c1
OVCAR-8 ovarian
  GI50: 5.96 µM
  TGI: > 100 µM
LOX IMVI melanoma
  GI50: 5.1 µM
  TGI: > 100 µM
NCI-H226 lung
  GI50: 9.82 µM
  TGI: > 100 µM
CCRF-CEM leukemia
  GI50: 4.19 µM
  TGI: > 100 µM
SNB-75 CNS
  GI50: 3.98 µM
  TGI: > 100 µM
UACC-257 melanoma
  GI50: 4.86 µM
  TGI: > 100 µM
CAKI-1 renal
  GI50: 6.3 µM
  TGI: > 100 µM
IGROV1 ovarian
  GI50: > 100 µM
  TGI: > 100 µM
M14 melanoma
  GI50: 4.8 µM
  TGI: > 100 µM
ACHN renal
  GI50: 6.9 µM
  TGI: > 100 µM

## CCN1CCN(C(=O)[C@@]2(C)CC[C@]3(C)CC[C@]4(C)C(=CC(=O)[C@@H]5[C@@]6(C)CC[C@H](OC7C[C@@H](O)[C@@H](O)C(C)O7)C(C)(C)[C@@H]6CC[C@]54C)[C@@H]3C2)CC1 (some centres undefined)
OVCAR-8 ovarian
  GI50: 1.62 µM
  TGI: 6.82 µM
LOX IMVI melanoma
  GI50: 1.01 µM
  TGI: 2 µM
NCI-H226 lung
  GI50: 10.3 µM
  TGI: 21.3 µM
CCRF-CEM leukemia
  GI50: 1.52 µM
  TGI: 50 µM
SNB-75 CNS
  GI50: 6.39 µM
  TGI: 12.8 µM
UACC-257 melanoma
  GI50: 1.65 µM
  TGI: 6.52 µM
CAKI-1 renal
  GI50: 7.81 µM
  TGI: 14.8 µM
IGROV1 ovarian
  GI50: 1.68 µM
  TGI: 6.39 µM
M14 melanoma
  GI50: 1.04 µM
  TGI: 2.19 µM
ACHN renal
  GI50: 0.91 µM
  TGI: 1.69 µM

## COc1ccccc1/C=N\N/C(N)=N\N=C\c1ccccc1OC
OVCAR-8 ovarian
  GI50: 0.301 µM
  TGI: 17.5 µM
LOX IMVI melanoma
  GI50: 2.4 µM
  TGI: > 39.5 µM
NCI-H226 lung
  GI50: 8.31 µM
  TGI: > 47 µM
CCRF-CEM leukemia
  GI50: 0.323 µM
  TGI: 2.08 µM
SNB-75 CNS
  GI50: 0.149 µM
  TGI: > 48.5 µM
UACC-257 melanoma
  GI50: 4.29 µM
  TGI: > 23.6 µM
CAKI-1 renal
  GI50: 0.207 µM
  TGI: 4.11 µM
IGROV1 ovarian
  GI50: 0.923 µM
M14 melanoma
  GI50: 0.266 µM
  TGI: 3.13 µM
ACHN renal
  GI50: 2.82 µM
  TGI: > 53.1 µM

## CNCc1ccccc1-c1csc([C@@H](C)Nc2nc(C)nc3cc(OC)c(OC)cc23)c1
OVCAR-8 ovarian
  GI50: 2.29 µM
  TGI: 7.65 µM
LOX IMVI melanoma
  GI50: 1.57 µM
  TGI: 2.98 µM
NCI-H226 lung
  GI50: 13.6 µM
  TGI: 32.7 µM
CCRF-CEM leukemia
  GI50: 2.26 µM
  TGI: 5.3 µM
SNB-75 CNS
  GI50: 1.33 µM
  TGI: 2.65 µM
UACC-257 melanoma
  GI50: 1.82 µM
  TGI: 3.51 µM
CAKI-1 renal
  GI50: 1.28 µM
  TGI: 2.55 µM
IGROV1 ovarian
  GI50: 1.4 µM
  TGI: 5.23 µM
M14 melanoma
  GI50: 1.79 µM
  TGI: 3.35 µM
ACHN renal
  GI50: 1.33 µM
  TGI: 2.62 µM

## O=C(O)c1nnsc1-c1ccc(-c2snnc2C(=O)O)cc1
OVCAR-8 ovarian
  TGI: > 100 µM
LOX IMVI melanoma
  TGI: > 100 µM
NCI-H226 lung
  TGI: > 100 µM
CCRF-CEM leukemia
  TGI: 9.63 µM
SNB-75 CNS
  TGI: > 100 µM
UACC-257 melanoma
  TGI: > 100 µM
CAKI-1 renal
  TGI: > 100 µM
IGROV1 ovarian
  TGI: > 100 µM
M14 melanoma
  TGI: > 100 µM
ACHN renal
  TGI: > 100 µM

## COc1ccc(Sc2[nH]c(C(C)=O)c3ccccc23)cc1
OVCAR-8 ovarian
  GI50: 16.4 µM
  TGI: 36.8 µM
LOX IMVI melanoma
  GI50: 11.8 µM
  TGI: 24.4 µM
NCI-H226 lung
  GI50: 5.66 µM
  TGI: 27.6 µM
CCRF-CEM leukemia
  GI50: 14.3 µM
  TGI: 40 µM
SNB-75 CNS
  GI50: 10.7 µM
  TGI: 51.3 µM
UACC-257 melanoma
  GI50: 15.3 µM
  TGI: 33.3 µM
CAKI-1 renal
  GI50: 2.86 µM
  TGI: 24 µM
IGROV1 ovarian
  GI50: 11.8 µM
  TGI: 43 µM
M14 melanoma
  GI50: 11.7 µM
  TGI: 25.1 µM
ACHN renal
  GI50: 16.5 µM
  TGI: 49.6 µM
